According to article PMC10341549, “Inhibitory Investigations of Acyl-CoA Derivatives against Human Lipoxygenase Isozymes” (International Journal of Molecular Sciences, 2023):

Legend:
h15-LOX-1 = molecular target: T1, h15-LOX-1 (Homo sapiens, UniProt P16050); assay: IC50 determination against h15-LOX-1; format: biochemical; conditions: 10 μM AA, 25 mM HEPES pH 7.5, 0.01% Triton X-100, 22 °C
T1 construct: His tag; made in house
T1 sequence (P16050 1-662): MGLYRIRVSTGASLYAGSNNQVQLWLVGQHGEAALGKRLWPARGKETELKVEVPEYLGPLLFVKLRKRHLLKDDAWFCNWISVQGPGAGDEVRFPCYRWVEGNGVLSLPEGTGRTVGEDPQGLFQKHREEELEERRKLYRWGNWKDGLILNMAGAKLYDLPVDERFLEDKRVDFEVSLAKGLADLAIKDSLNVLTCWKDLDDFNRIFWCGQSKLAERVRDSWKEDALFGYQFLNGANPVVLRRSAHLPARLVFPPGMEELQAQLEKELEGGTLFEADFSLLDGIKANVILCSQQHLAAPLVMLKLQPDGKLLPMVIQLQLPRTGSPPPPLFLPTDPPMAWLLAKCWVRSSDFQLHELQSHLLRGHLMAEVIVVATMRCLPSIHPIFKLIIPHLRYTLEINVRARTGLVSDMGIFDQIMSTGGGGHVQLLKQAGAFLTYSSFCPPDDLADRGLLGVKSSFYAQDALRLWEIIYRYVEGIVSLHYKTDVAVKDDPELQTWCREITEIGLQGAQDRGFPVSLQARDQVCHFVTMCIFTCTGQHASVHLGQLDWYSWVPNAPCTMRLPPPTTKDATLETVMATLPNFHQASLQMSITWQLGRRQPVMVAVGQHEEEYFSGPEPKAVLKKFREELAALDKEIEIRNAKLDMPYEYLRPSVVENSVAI
Description: (§1) Overexpression and purification of his-tagged wild-type h12-LOX (Uniprot entry P18054), h15-LOX-1 (Uniprot entry P16050), and h15-LOX-2 (Uniprot entry O15296) were performed using nickel-affinity chromatography. The purity of h12-LOX, h15-LOX-1, and h15-LOX-2 was assessed using SDS gel as greater than 85%, and metal content was assessed with a Finnigan inductively coupled plasma mass spectrometer (ICP-MS, Thermo Fischer Scientific, San Jose, USA) via comparison with iron standard solution. Cobalt-EDTA was used as an internal standard. WT h5-LOX (UniProt entry P09917) was expressed in Rosetta 2 cells (Novagen) transformed with the pET14b-Stable-5-LOX plasmid (a gift from Marcia Newcomer of Louisiana State University) and grown in Terrific Broth containing 34 μg/mL chloramphenicol and 100 μg/mL ampicillin at 37 °C for 3.5 h, then placed at 20 °C for an additional 26 h. Cells were pelleted and resuspended in 50 mM Tris (pH 8.0), 500 mM NaCl, 20 mM imidazole with 1 μM pepstatin, 100 μM PMSF, and DNaseI (Sigma, Kanagawa, Japan). The cells were lysed in a French pressure cell and centrifuged at 40,000× g for 20 min at 4 °C. Saturated ammonium sulfate was added to achieve a final solution of 10% and inverted several times. The lysate was centrifuged at 40,000× g for 10 min at 4 °C. The pellet was discarded, and the supernatant was increased to a final concentration of 50% ammonium sulfate. The supernatant was rotated for 10 min at 4 °C then centrifuged at 40,000× g for 10 min at 4 °C. The pellet was split into 150 mg aliquots. The WT h5-LOX used for the kinetics in this work was not purified due to a dramatic loss in activity and was therefore prepared as an ammonium-sulfate precipitate.
(§2) IC50 values for each acyl-CoA were measured against h5-LOX, h12-LOX, h15-LOX-1, and h15-LOX-2. The reactions were carried out in 25 mM HEPES buffer (pH 8.00), 0.01% Triton X-100, and 10 μM AA for h12-LOX; 25 mM HEPES buffer (pH 7.5), 0.01% Triton X-100, and 10 μM AA for h15-LOX-1 and h15-LOX-2; and 50 mM HEPES buffer (pH 7.5), 100 µM EDTA, 50 mM NaCl, 200 µM ATP, and 10 μM AA for h5-LOX. IC50 reactions were implemented with h15-LOX-1 (0.125 μM), h12-LOX (0.300 μM), h15-LOX-2 (0.5 μM), and h5-LOX (∼600 nM ammonium sulfate salt) at 22 °C in a 1 cm^2 quartz cuvette containing 2 mL of the according buffer and 10 μM AA for no longer than 2 min to avoid any cleavage of the acyl-coenzyme A. Inhibitor concentrations ranging from 50 μM to 0.01 μM were used. All reactions were conducted using a Cary-UV Vis spectrophotometer (Agilent, Santa Clara, CA, USA). The fastest rates over 15 s intervals were recorded. IC50 values were obtained by determining the percent of inhibition of the enzymatic rate at ten inhibitor concentrations and plotting the rate against the inhibitor concentration, followed by a hyperbolic saturation curve fit. The saturation curve fits were performed in duplicate or triplicate, depending on the quality of the data. […] Through HPLC monitoring, we were able to determine a lack of degradation of the fatty acyl-CoAs over the first hour.

h15-LOX-2 = molecular target: T2, h15-LOX-2 (Homo sapiens, UniProt O15296); assay: IC50 determination against h15-LOX-2; format: biochemical; conditions: 10 μM AA, 25 mM HEPES pH 7.5, 0.01% Triton X-100, 22 °C
T2 construct: His tag; made in house
T2 sequence (O15296 1-676): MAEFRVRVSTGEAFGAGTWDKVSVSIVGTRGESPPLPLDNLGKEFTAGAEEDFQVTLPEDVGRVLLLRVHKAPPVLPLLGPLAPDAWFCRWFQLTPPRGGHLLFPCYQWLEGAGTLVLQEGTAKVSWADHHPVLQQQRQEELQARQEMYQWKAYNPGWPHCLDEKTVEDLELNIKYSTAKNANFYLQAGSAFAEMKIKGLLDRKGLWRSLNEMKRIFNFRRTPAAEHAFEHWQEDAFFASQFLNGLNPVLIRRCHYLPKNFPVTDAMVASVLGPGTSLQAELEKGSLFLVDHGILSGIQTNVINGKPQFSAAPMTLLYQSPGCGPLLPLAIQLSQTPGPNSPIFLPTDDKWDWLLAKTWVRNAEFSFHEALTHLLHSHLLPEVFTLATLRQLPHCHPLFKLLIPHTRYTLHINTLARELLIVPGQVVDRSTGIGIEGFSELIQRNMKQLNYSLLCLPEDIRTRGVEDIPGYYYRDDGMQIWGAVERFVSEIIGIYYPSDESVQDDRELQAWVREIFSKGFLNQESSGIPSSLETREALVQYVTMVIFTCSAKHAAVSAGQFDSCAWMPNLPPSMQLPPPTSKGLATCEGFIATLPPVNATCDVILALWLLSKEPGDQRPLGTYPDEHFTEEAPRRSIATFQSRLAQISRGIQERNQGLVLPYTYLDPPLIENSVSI
Description: as §1, §2

SMILES	IC50 (h15-LOX-1)	IC50 (h15-LOX-2)	IC50 (h15-LOX-2; listed as arachidonoyl-CoA (20:4))	IC50 (h15-LOX-2; listed as palmitoleoyl-CoA (16:1))	IC50 (h15-LOX-2; listed as ɣ-linolenoyl-CoA (18:3))	IC50 (h15-LOX-2; listed as palmitoyl-CoA (16:0))
CCCCC/C=C\C/C=C\C/C=C\C/C=C\CCCC(=O)SCCNC(=O)CCNC(=O)[C@H](O)C(C)(C)COP(=O)(O)OP(=O)(O)OC[C@H]1O[C@@H](n2cnc3c(N)ncnc32)[C@H](O)[C@@H]1OP(=O)(O)O [Arachidonoyl-CoA (20:4), arachidonoyl-coenzyme A (20:4)]	> 500 µM	> 500 µM	> 100 µM			
CCCCCC/C=C\CCCCCCCC(=O)SCCNC(=O)CCNC(=O)[C@H](O)C(C)(C)COP(=O)(O)OP(=O)(O)OC[C@H]1O[C@@H](n2cnc3c(N)ncnc32)[C@H](O)[C@@H]1OP(=O)(O)O [Palmitoleoyl-CoA (16:1), palmitoleoyl-coenzyme A (16:1)]	> 500 µM	> 200 µM		> 100 µM		
CCCCC/C=C\C/C=C\C/C=C\CCCCC(=O)SCCNC(=O)CCNC(=O)[C@H](O)C(C)(C)COP(=O)(O)OP(=O)(O)OC[C@H]1O[C@@H](n2cnc3c(N)ncnc32)[C@H](O)[C@@H]1OP(=O)(O)O [ɣ-Linolenoyl-CoA (18:3), ɣ-linolenoyl-coenzyme A (18:3)]	> 500 µM	> 500 µM			> 100 µM	
CC/C=C\C/C=C\C/C=C\C/C=C\C/C=C\C/C=C\CCC(=O)SCCNC(=O)CCNC(=O)C(O)C(C)(C)COP(=O)(O)OP(=O)(O)OC[C@H]1O[C@@H](n2cnc3c(N)ncnc32)[C@H](O)[C@@H]1OP(=O)(O)O (stereo partly shown) [Docosahexaenoyl CoA (22:6), docosahexaenoyl-coenzyme A (22:6)]	> 500 µM	> 500 µM				
CCCCCCCCCCCCCCCC(=O)SCCNC(=O)CCNC(=O)[C@H](O)C(C)(C)COP(=O)(O)OP(=O)(O)OC[C@H]1O[C@@H](n2cnc3c(N)ncnc32)[C@H](O)[C@@H]1OP(=O)(O)O [Palmitoyl-CoA (16:0), palmitoyl-coenzyme A (16:0)]	> 500 µM	> 200 µM				> 100 µM

Results, then the compound that gave them:

IC50 (h15-LOX-1)	IC50 (h15-LOX-2)	IC50 (h15-LOX-2; listed as arachidonoyl-CoA (20:4))	IC50 (h15-LOX-2; listed as palmitoleoyl-CoA (16:1))	IC50 (h15-LOX-2; listed as ɣ-linolenoyl-CoA (18:3))	IC50 (h15-LOX-2; listed as palmitoyl-CoA (16:0))	SMILES
4.2 ± 0.6 µM	7.6 ± 1 µM					CCCCCCCCCCCCCCCCCC(=O)SCCNC(=O)CCNC(=O)[C@H](O)C(C)(C)COP(=O)(O)OP(=O)(O)OC[C@H]1O[C@@H](n2cnc3c(N)ncnc32)[C@H](O)[C@@H]1OP(=O)(O)O [Stearoyl-CoA (18:0), stearoyl-coenzyme A (18:0)]
39 ± 2 µM	0.62 ± 0.06 µM					CCCCCCCC/C=C\CCCCCCCC(=O)SCCNC(=O)CCNC(=O)[C@H](O)C(C)(C)COP(=O)(O)OP(=O)(O)OC[C@H]1O[C@@H](n2cnc3c(N)ncnc32)[C@H](O)[C@@H]1OP(=O)(O)O [Oleoyl-CoA (18:1), oleoyl-coenzyme A (18:1)]
	> 100 µM					CCCCC/C=C\C/C=C\CCCCCCCC(=O)SCCNC(=O)CCNC(=O)[C@H](O)C(C)(C)COP(=O)(O)OP(=O)(O)OC[C@H]1O[C@@H](n2cnc3c(N)ncnc32)[C@H](O)[C@@H]1OP(=O)(O)O [Linoleoyl-CoA (18:2), linoleoyl-CoA]
